Each molecule was assayed against T1, human BRD4 bromodomain II (Homo sapiens, UniProt O60885) (assay: Bromodomain binding assay (AlphaScreen), BRD4 BDII). Conditions: AlphaScreen assay, Table C2; read-out: BRD4 BDII IC50.
T1 construct: human BRD4 bromodomain II [based on Genbank NM_058243, residues 349-460]; host or cells: E. coli
In short: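 First, His6-tagged BRD4 bromodomain (BDI residues 44-170 or BDII residues 349-460) is incubated with compound for 30 min at room temperature. Next the biotinylated H4 peptide is added for 30 min, then donor and acceptor beads, with 60 min in the dark before AlphaScreen reading and IC50 fitting.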

**Q.** `O=C1CCCN1c1ccc(-c2cccc(-c3ccncc3)c2O)cc1F` [Example 190, 1-(3-fluoro-2′-hydroxy-3′-(pyridin-4-yl)-[1,1′-biphenyl]-4-yl)pyrrolidin-2-one] was tested. Which IC50 did it give?
**A.** 10 to 100 nM

**Q.** For `O=C1CCCN1c1ccc(-c2cccc(-c3ccncc3)c2O)cc1Cl` [Example 213, 1-(3-Chloro-2′-hydroxy-3′-(pyridin-4-yl)-[1,1′-biphenyl]-4-yl)pyrrolidin-2-one 2,2,2-trifluoroacetate], which IC50 is on record?
**A.** 10 to 100 nM

**Q.** Which IC50 does the source give for `O=C1NCCN1c1ccc(-c2cccc(-c3ccnc(N4CCNCC4)c3)c2O)cc1Cl` [Example 228, 1-(3-chloro-2′-hydroxy-3′-(2-(piperazin-1-yl)pyridin-4-yl)-[1,1′-biphenyl]-4-yl)imidazolidin-2-one] here?
**A.** 1 to 10 nM

**Q.** For `CC(=O)Nc1ccc(-c2cccc(-c3cc(N4CCNCC4)ccc3F)c2O)cc1F` [Example 187, N-(2″,3-difluoro-2′-hydroxy-5″-(piperazin-1-yl)-[1,1′:3′,1″-terphenyl]-4-yl)acetamide], which IC50 is on record?
**A.** 10 to 100 nM

**Q.** For `CC(=O)Nc1c(F)cc(-c2cccc(-c3cc(N4CCNCC4)no3)c2O)cc1F` [Example 86, N-(3,5-Difluoro-2′-hydroxy-3′-(3-(piperazin-1-yl)isoxazol-5-yl)-[1,1′-biphenyl]-4-yl)acetamide 2,2,2-trifluoroacetate], which IC50 is on record?
**A.** 10 to 100 nM

**Q.** `CC(=O)Nc1ccc(-c2cccc(-c3ccc(N4CCOCC4)cc3)c2O)cc1F` [Example 94, N-(3-Fluoro-2′-hydroxy-4″-morpholino-[1,1′:3′,1″-terphenyl]-4-yl)acetamide] was tested. Which IC50 did it give?
**A.** > 100 nM

**Q.** Which IC50 does the source give for `CC(=O)Nc1ccc(-c2cccc(-c3ccc4ncncc4c3)c2O)cc1F` [Example 142, N-(3-fluoro-2′-hydroxy-3′-(quinazolin-6-yl)-[1,1′-biphenyl]-4-yl)acetamide] here?
**A.** 10 to 100 nM

**Q.** For `COc1ccc(C)c(-c2cccc(-c3ccc(NC(C)=O)c(F)c3)c2O)c1` [Example 147, N-(3-fluoro-2′-hydroxy-5″-methoxy-2″-methyl-[1,1′:3′,1″-terphenyl]-4-yl)acetamide], which IC50 is on record?
**A.** > 100 nM

**Q.** With `CC(=O)Nc1ccc(-c2cccc(-c3ccc(OC4CCC4)cc3)c2O)cc1F` [Example 117, N-(4″-Cyclobutoxy-3-fluoro-2′-hydroxy-[1,1′:3′,1″-terphenyl]-4-yl)acetamide] as the molecule, how does the IC50 read?
**A.** > 100 nM

**Q.** `CCOC(=O)c1ccc(-c2cccc(-c3ccc(NC(C)=O)c(F)c3)c2O)cc1` [Example 69, Ethyl 4″-acetamido-3″-fluoro-2′-hydroxy-[1,1′:3′,1″-terphenyl]-4-carboxylate] was tested. Which IC50 did it give?
**A.** > 100 nM

**Q.** Which IC50 does the source give for `CC(=O)Nc1ccc(-c2cccc(-c3cc(N4CCN(S(=O)(=O)c5ccccc5)CC4)no3)c2O)cc1` [Example 58, N-(2′-Hydroxy-3′-(3-(4-(phenylsulfonyl)piperazin-1-yl)isoxazol-5-yl)-[1,1′-biphenyl]-4-yl)acetamide] here?
**A.** > 100 nM

**Q.** For `O=C1CCCN1c1ccc(-c2cccc(-c3cc(N4CCNCC4)no3)c2O)cc1` [Example 43, 1-(2′-Hydroxy-3′-(3-(piperazin-1-yl)isoxazol-5-yl)-[1,1′-biphenyl]-4-yl)pyrrolidin-2-one 2,2,2-trifluoroacetate], which IC50 is on record?
**A.** 10 to 100 nM

**Q.** With `CC(=O)Nc1ccc(-c2cccc(-c3cc(N4CCNCC4)n(C)n3)c2O)cc1F` [Example 160, N-(3-fluoro-2′-hydroxy-3′-(1-methyl-5-(piperazin-1-yl)-1H-pyrazol-3-yl)-[1,1′-biphenyl]-4-yl)acetamide] as the molecule, how does the IC50 read?
**A.** > 100 nM

**Q.** Which IC50 does the source give for `CC(=O)Nc1ccc(-c2cccc(-c3cccc(N4CC5(CNC5)C4)c3)c2O)cc1F` [Example 219, N-(3-fluoro-2′-hydroxy-3″-(2,6-diazaspiro[3.3]heptan-2-yl)-[1,1′:3′,1″-terphenyl]-4-yl)acetamide] here?
**A.** 10 to 100 nM

**Q.** For `CCOc1cccc(-c2cccc(-c3ccc(NC(C)=O)c(F)c3)c2O)c1` [Example 72, N-(3″-Ethoxy-3-fluoro-2′-hydroxy-[1,1′:3′,1″-terphenyl]-4-yl)acetamide], which IC50 is on record?
**A.** > 100 nM

**Q.** `CC(=O)Nc1ccc(-c2cccc(-c3cccc(N4CC(C)NC(C)C4)c3)c2O)cc1F` (centres unmarked) [Example 200, N-(3″-(3,5-dimethylpiperazin-1-yl)-3-fluoro-2′-hydroxy-[1,1′:3′,1″-terphenyl]-4-yl)acetamide] was tested. Which IC50 did it give?
**A.** 1 to 10 nM

**Q.** Which IC50 does the source give for `COc1cccc(-c2cccc(-c3ccc(NC(C)=O)c(F)c3)c2O)c1` [Example 56, N-(3-fluoro-2′-hydroxy-3″-methoxy-[1,1′:3′,1″-terphenyl]-4-yl)acetamide] here?
**A.** > 100 nM

**Q.** Which IC50 does the source give for `COc1ccc(-c2cccc(-c3ccc(NC(C)=O)c(F)c3)c2O)cc1` [Example 61, N-(3-Fluoro-2′-hydroxy-4″-methoxy-[1,1′:3′,1″-terphenyl]-4-yl)acetamide] here?
**A.** > 100 nM

**Q.** For `CC(=O)Nc1ccc(-c2cccc(-c3ccc(C)cc3)c2O)cc1F` [Example 60, N-(3-Fluoro-2′-hydroxy-4″-methyl-[1,1′:3′,1″-terphenyl]-4-yl)acetamide], which IC50 is on record?
**A.** > 100 nM

**Q.** `COC(=O)c1cc(-c2cccc(-c3ccc(NC(C)=O)c(F)c3)c2O)ccn1` [Example 201, Methyl 4-(4′-acetamido-3′-fluoro-2-hydroxy-[1,1′-biphenyl]-3-yl)picolinate] was tested. Which IC50 did it give?
**A.** 10 to 100 nM

**Q.** With `CC(=O)Nc1ccc(-c2cccc(-c3cccc(N4CC5(CCNC5)CC4=O)c3)c2O)cc1F` (centres unmarked) [Example 194, N-(3-fluoro-2′-hydroxy-3″-(3-oxo-2,7-diazaspiro[4.4]nonan-2-yl)-[1,1′:3′,1″-terphenyl]-4-yl)acetamide] as the molecule, how does the IC50 read?
**A.** 1 to 10 nM

**Q.** How did the IC50 turn out when `CC(=O)Nc1ccc(-c2cccc(-c3cccc(-c4c[nH]cn4)c3)c2O)cc1F` [Example 229, N-(3-fluoro-2′-hydroxy-3″-(1H-imidazol-4-yl)-[1,1′:3′,1″-terphenyl]-4-yl)acetamide] was run?
**A.** 10 to 100 nM

**Q.** How did the IC50 turn out when `CC(=O)Nc1ccc(-c2cccc(-c3ccnc(N4CCNCC4)c3)c2C(F)F)cc1F` [Example 250, N-(2′-(difluoromethyl)-3-fluoro-3′-(2-(piperazin-1-yl)pyridin-4-yl)-[1,1′-biphenyl]-4-yl)acetamide] was run?
**A.** > 100 nM

**Q.** How did the IC50 turn out when `CC(=O)Nc1ccc(-c2cccc(-c3ccc(NC(C)=O)c(C(F)(F)F)c3)c2O)cc1F` [Example 138, N,N′-(3-fluoro-2′-hydroxy-3″-(trifluoromethyl)-[1,1′:3′,1″-terphenyl]-4,4″-diyl)diacetamide] was run?
**A.** > 100 nM

**Q.** For `O=C1CCCN1c1c(F)cc(-c2cccc(-c3cc(N4CCNCC4)no3)c2O)cc1F` [Example 140, 1-(3,5-difluoro-2′-hydroxy-3′-(3-(piperazin-1-yl)isoxazol-5-yl)-[1,1′-biphenyl]-4-yl)pyrrolidin-2-one], which IC50 is on record?
**A.** 10 to 100 nM

**Q.** Which IC50 does the source give for `CC(=O)Nc1ccc(-c2cccc(-c3cccc(Oc4ccccc4)c3)c2O)cc1F` [Example 91, N-(3-Fluoro-2′-hydroxy-3″-phenoxy-[1,1′:3′,1″-terphenyl]-4-yl)acetamide] here?
**A.** > 100 nM

**Q.** With `CC(=O)Nc1ccc(-c2cccc(-c3cc(N4CCNCC4)sn3)c2O)cc1` [Example 8, N-(2′-Hydroxy-3′-(5-(piperazin-1-yl)isothiazol-3-yl)-[1,1′-biphenyl]-4-yl)acetamide] as the molecule, how does the IC50 read?
**A.** > 100 nM

**Q.** With `CC(=O)Nc1ccc(-c2cccc(-c3cccc(N4CCC(CN)C4)c3)c2O)cc1F` (centres unmarked) [Example 203, N-(3″-(3-(aminomethyl)pyrrolidin-1-yl)-3-fluoro-2′-hydroxy-[1,1′:3′,1″-terphenyl]-4-yl)acetamide] as the molecule, how does the IC50 read?
**A.** 1 to 10 nM

**Q.** Which IC50 does the source give for `COc1ccc(F)c(-c2cccc(-c3ccc(NC(C)=O)c(F)c3)c2O)c1` [Example 158, N-(2″,3-difluoro-2′-hydroxy-5″-methoxy-[1,1′:3′,1″-terphenyl]-4-yl)acetamide] here?
**A.** > 100 nM

**Q.** For `CN1CCN(c2ccc(-c3cccc(-c4cc(N5CCNCC5)no4)c3O)cc2)C1=O` [Example 65, 1-(2′-Hydroxy-3′-(3-(piperazin-1-yl)isoxazol-5-yl)-[1,1′-biphenyl]-4-yl)-3-methylimidazolidin-2-one 2,2,2-trifluoroacetate], which IC50 is on record?
**A.** 10 to 100 nM

**Q.** For `CCc1cc(-c2cccc(-c3ccc(NC(C)=O)c(F)c3)c2O)ccc1NC(C)=O` [Example 88, N,N′-(3-Ethyl-3″-fluoro-2′-hydroxy-[1,1′:3′,1″-terphenyl]-4,4″-diyl)diacetamide], which IC50 is on record?
**A.** > 100 nM

**Q.** How did the IC50 turn out when `CC(=O)Nc1ccc(-c2cccc(-c3cc(N4CCNCC4)no3)c2O)cc1OC1CCC1` [Example 24, N-(3-cyclobutoxy-2′-hydroxy-3′-(3-(piperazin-1-yl)isoxazol-5-yl)-[1,1′-biphenyl]-4-yl)acetamide 2,2,2-trifluoroacetate] was run?
**A.** 10 to 100 nM

**Q.** `CC(=O)Nc1ccc(-c2cccc(-c3ccnc(N)c3)c2O)cc1F` [Example 111, N-(3′-(2-Aminopyridin-4-yl)-3-fluoro-2′-hydroxy-[1,1′-biphenyl]-4-yl)acetamide] was tested. Which IC50 did it give?
**A.** 10 to 100 nM

**Q.** Which IC50 does the source give for `CC(=O)Nc1ccc(-c2cccc(-c3cccc(N4CC(CN)C4)c3)c2O)cc1F` [Example 220, N-(3″-(3-(aminomethyl)azetidin-1-yl)-3-fluoro-2′-hydroxy-[1,1′:3′,1″-terphenyl]-4-yl)acetamide] here?
**A.** 10 to 100 nM

**Q.** How did the IC50 turn out when `CC(=O)Nc1ccc(-c2cccc(-c3cc(N4CCNCC4)no3)c2O)c(F)c1` [Example 30, N-(2-Fluoro-2′-hydroxy-3′-(3-(piperazin-1-yl)isoxazol-5-yl)-[1,1′-biphenyl]-4-yl)acetamide 2,2,2-trifluoroacetate] was run?
**A.** > 100 nM

**Q.** For `CC(=O)Nc1ccc(-c2cccc(-c3cc(N4CCN(C5COC5)CC4)no3)c2O)cc1F` [Example 153, N-(3-fluoro-2′-hydroxy-3′-(3-(4-(oxetan-3-yl)piperazin-1-yl)isoxazol-5-yl)-[1,1′-biphenyl]-4-yl)acetamide], which IC50 is on record?
**A.** 10 to 100 nM

**Q.** For `COc1c(-c2ccc(NC(C)=O)cc2)cccc1-c1cc(N2CCN(C)CC2)no1` [Example 7], which IC50 is on record?
**A.** > 100 nM

**Q.** How did the IC50 turn out when `CC(=O)Nc1ccc(-c2cccc(-c3cccc(N4CCC(N)C4)c3)c2O)cc1F` (centres unmarked) [Example 177, N-(3″-(3-aminopyrrolidin-1-yl)-3-fluoro-2′-hydroxy-[1,1′:3′,1″-terphenyl]-4-yl)acetamide] was run?
**A.** 10 to 100 nM
